Reference: US8044201B2, “Stem cell cultures” (The Scripps Research Institute, priority 2008, dated 2011)
“Also recorded” adds a separate entry of the source.

Columns and labels:
[1] = tested on: β1 integrin; assay: Active conformation of β1 integrin in hESCs (HUTS-21 binding, flow cytometry and immunostaining); assay type: cell-based, human; conditions: for level of HUTS-21 binding (activated β1 integrin): trypsin-dissociated hESCs
Excerpt: To gain insights into the mechanism of β1 integrin regulation by Tzv and Ptn, we investigated whether the compounds' effect is due to changes of integrin expression. In contrast to E-cadherin, β1 integrin was not cleaved by trypsin. […] Thus, Tzv and Ptn are likely to affect cell adhesion by modulating integrin activity (FIGS. 3d,e). To examine the effects of compound treatment on the activity of β1 integrin, we used the monoclonal antibody HUTS-21, which specifically binds to the activated form of the β1 integrin (Luque, A. et al., J Biol Chem 271 (19):11067-11075 (1996)).
(§1) To assess the expression of E-cadherin, activated integrin and SSEA4, dissociated cells (3×10^5) were washed with PBS and resuspended in PBS containing 2% goat serum. Cells were then incubated with the appropriate antibody for 1 h at 4° C., washed with the blocking solution, and labeled with FITC-conjugated secondary antibody for 30 min at 4° C. Cells were then washed and analyzed on a FACS Calibur flow cytometer.

[2] = tested on: hESCs; assay: ALP positive colony formation by dissociated hESCs (clonal / low-density survival assay); assay type: cell-based, human; conditions: PKC agonist treatment
Method: (§2) Human ESC lines H1, HUES7 and HUES9 were cultured on irradiated MEF feeder cells in DMEM-F12 supplemented with 2 mM L-glutamine, 1× nonessential amino acids, 20% serum replacement (Invitrogen) and 10 ng/ml basic Fibroblast growth factor (Invitrogen). Chemically-defined and feeder-free hESC culture was described previously (Yao, S. et al., Proc Natl Acad Sci USA 103 (18):6907-6912 (2006)). Briefly, hESCs were grown on Matrigel-coated tissue culture plates in N2B27-CDM (DMEM-F12 supplemented with 1× N2 supplements, 1× B27 supplements, 2 mM L-glutamine, 0.11 mM 2-mercaptoethanol, 1× nonessential amino acids, and 0.5 mg/ml BSA (fraction V)) and 20 ng/ml bFGF. Human ESCs were passaged every 5-6 days with 0.05% trypsin.
For clonal survival assays, single hESCs were diluted to clonal density and plated onto 96-well Matrigel-coated plate. For low-density survival assays, 500 cells were plated onto 96-well Matrigel-coated plate. To visualize hESC colonies, cultures were fixed in 4% paraformaldehyde in PBS for 5 min, washed once in PBS, then stained for alkaline phosphatase activity as described in manufacturer's instructions. ALP positive colonies were counted on an inverted microscope.

[3] = tested on: hESCs; assay: Cell adhesion assay of dissociated hESCs; assay type: cell-based, human
Method: Cell adhesion assays were performed in 96-well microtiter plates coated with Matrigel. After trypsin, hESCs were resuspended in the chemically-defined media containing the desired compounds. Cells were then added to the microtiter wells and incubated for 3 h at 37° C. Unbound and loosely bound cells were removed by shaking and washing, and the remaining cells were then fixed immediately. The wells were washed 3 times with 200 μl of H2O, and attached cells were stained with Crystal Violet (Sigma). The absorbance of each well at 570 nm was then measured. For experiments with blocking antibodies, cells were pre-incubated with antibodies on ice for 30 min, and adhesion assays were performed in the presence of antibodies. Each sample was assayed independently for three times.

[4] = tested on: hESCs; assay: Cell death / survival analysis of dissociated hESCs in adherent (Matrigel) or suspension culture; assay type: cell-based, human; conditions: for survival of dissociated hESCs in adherent culture: Matrigel-coated plate; for survival of dissociated hESCs in adherent culture / survival of dissociated hESCs in suspension culture: 2 μM
Method: as §2
The hESCs under different treatments were dissociated by trypsin and fixed by 4% paraformaldehyde. And the staining was carried out according to the manufacturer's instructions (MBL Laboratories, Watertown, Mass.). After staining, samples were analysed by flow cytometry using a FACS Calibur flow cytometer (BD).

[5] = tested on: human embryonic stem cell, mouse embryonic stem cell, multiple neural stem cells, skin stem cells, mesenchymal stem cells, hematopoietic stem cells, stromal …; assay: Survival and anti-differentiation of stem cells ex vivo after isolation; assay type: cell-based; conditions: contacted immediately after isolation of the cells
Excerpt: In some embodiments, the invention provides methods of promoting survival and anti-differentiation in stem cells ex-vivo.

[6] = tested on: hESCs; assay: Long-term serial passage of hESCs in Tzv or Ptn-containing chemically-defined medium (morphology, pluripotency markers, karyotype); assay type: cell-based, human; conditions: serially passaged for more than 20 generations in compound-containing chemically-defined medium
Method: as §2
Immunostaining was performed as described previously (Yao, S. et al., Proc Natl Acad Sci USA 103 (18):6907-6912 (2006)). Briefly, cells were fixed with 4% paraformaldehyde at room temperature (RT) for 15 min. The cells were then incubated at RT in blocking buffer for 1 hour. […]
Teratoma formation experiments were performed by injecting 3-5 million hESCs (maintained in the presence of compounds Tvz or Ptn) under the kidney capsule of nude mice. After 4-5 weeks, all mice developed teratomas, which were removed and then immunohistologically analyzed by The Scripps Research Institute Research Histology Service and Animal Resources. […]

[7] = tested on: growth factor receptor; assay: Western blot of growth factor receptor phosphorylation in hESCs; assay type: cell-based, human; conditions: hESCs treated for 2 h, DMSO control
[8] = tested on: ERK and AKT; assay: Western blot of ERK and AKT phosphorylation in dissociated hESCs; assay type: cell-based, human
[9] = tested on: epithelial to mesenchymal transition/EMT; assay: Epithelial to mesenchymal transition (EMT) / MET; assay type: cell-based
[10] = tested on: E-cadherins to EGFR1 and ERB2; assay: Immunoprecipitation of E-cadherins with EGFR1 and ERB2 in hESCs; assay type: cell-based, human
Excerpt: ALP detection kit and integrin antibodies were from Chemicon. AG825 (Erb2 inhibitor), AG1478 (EGFR inhibitor), PPP (IGFR1 inhibitor) were purchased from Calbiochem. Antibodies raised against the intracytoplasmic tail of E-cadherins (Transduction Laboratories, Lexington, Ky.) were used for immunoprecipitation. The antibody TS2/16 was from Pierce. Antibodies to the extracellular domain of E-cadherin molecule were from Zymed (Carlsbad). Antibodies against extracellular signal-regulated kinase/MAPK, EGFR1, ERB2, GADPH and phosphorylated form of AKT were from Cell Signaling. Mouse monoclonal anti-phosphotyrosine (4G-10 clone) was from Upstate Biotechnology. Ptn and Tzv were added to culture medium at 2 μM.

[11] = tested on: primary human pancreatic islets/beta cells; assay: Cell death of dispersed primary pancreatic islets/beta cells plated as single cells on matrigel or laminin; assay type: cell-based; conditions: 1-2 mM added to the media
Method: For example, the inventors dispersed primary human pancreatic islets/beta cells plated as single cells onto a tissue culture plate that was coated with matrigel or laminin. […] Accordingly, in some embodiments, a compound of the present invention is administered to an individual in need of pancreatic beta and/or islet cells, wherein administration of the compound results in an increase in the number of beta or islet cells in the individual.

[12] = tested on: E-cadherin; assay: E-cadherin level in hESCs after trypsin dissociation (Western blot, flow cytometry, semiquantitative RT-PCR); assay type: cell-based, human
Method: as §1

[13] = tested on: mouse P1 cortical explants; assay: Neurite / axon outgrowth from cortical explants; assay type: cell-based
Method: Compounds of formula I and III (i.e., Tvz and Ptn) are effective at promoting axonal regeneration and functional recovery in injured central nervous system. […] Tzv (3 μM) was tested on mouse P1 cortical explants, with axon outgrowth as an outcome read-out. Tzv was added to the medium 20 minutes after plating, with DMSO as a control. […] Accordingly, in some embodiments, a compound of the present invention is administered to an individual having a central nervous system injury or who is in need or would otherwise benefit from axonal regeneration.

With CCCCCCCCCCCCCC(=O)O[C@@H]1[C@@H](C)[C@@]2(O)[C@@H](C=C(CO)C[C@]3(O)C(=O)C(C)=C[C@@H]23)[C@@H]2C(C)(C)[C@]12OC(C)=O [PMA, phorbol 12-myristate 13-acetate, reference compound] the integrin activation ([1]; dissociated hESCs, PMA 10 nM (FIG. 3k)) was “integrin activation”, the “colony formation of dissociated hESCs” value [2] was “substantial increase” and the “cell adhesion of dissociated hESCs” value ([3]; PKC agonist treatment) was “substantial increase”.

For O=S(=O)(NCC1CC1)c1ccc(Nc2nccc(N3CCCc4cc(O)ccc43)n2)cc1 [Ptn, N-(cyclopropylmethyl)-4-(4-(6-hydroxy-3,4-dihydroquinolin-1(2H)-yl)pyrimidin-2-ylamino)benzenesulfonamide], the “survival of dissociated hESCs in adherent culture” value [4] was “promoted survival; also recorded: dramatic effect on survival”, the “survival of dissociated hESCs in suspension culture” value [4] was “no effect” and the “survival and anti-differentiation of stem cells” value [5] was “effective in promoting survival and anti-differentiation”. For the same compound, the “maintenance of hESC morphology, pluripotency markers and karyotype” value [6] was “maintained the characteristic morphology of hESCs, the expression of typical pluripotency markers, and normal karyotype”, the “level of HUTS-21 binding (activated β1 integrin)” value [1] was “increased” and the “phosphorylation of growth factor receptor” value [7] was “significantly increased”. For the same compound, the “phosphorylation of ERK and AKT” value [8] was “increased”, the “adhesion of dissociated hESCs to Matrigel or laminin” value [3] was “dramatically increased adhesion” and the “adhesion of hESCs to gelatin or poly-lysine” value [3] was “not affected”. The “induction of MET and inhibition of EMT” value [9] was “induce MET (the reverse of EMT) and inhibit EMT”.

For O=C(NCc1ccccc1)c1csc(Nc2ccncn2)n1 [Tzv, N-benzyl-2-(pyrimidin-4-ylamino)thiazole-4-carboxamide], the “survival of dissociated hESCs in adherent culture” value [4] was “greatly improved survival; also recorded: dramatic effect on survival”, the “cell aggregate formation in suspension” value ([4]; hESCs grown in suspension) was “formed nice cell aggregates” and the “survival of dissociated hESCs in suspension culture” value [4] was “greatly improved survival”. For the same compound, the “binding of E-cadherins to EGFR1 and ERB2” value [10] was “induced binding”, the “survival and anti-differentiation of stem cells” value [5] was “effective in promoting survival and anti-differentiation” and the “maintenance of hESC morphology, pluripotency markers and karyotype” value [6] was “maintained the characteristic morphology of hESCs, the expression of typical pluripotency markers, and normal karyotype”. For the same compound, the “level of HUTS-21 binding (activated β1 integrin)” value [1] was “increased”, the “cell death of pancreatic islets/beta cells” value [11] was “cell death was inhibited” and the “full-length E-cadherin expression (Western blot)” value ([12]; hESCs after trypsin dissociation) was “significantly increased”. The “cell surface E-cadherins (flow cytometry)” value ([12]; hESCs after trypsin treatment) was “significantly increased”, the “E-cadherin transcripts (semiquantitative RT-PCR)” value ([12]; vs mock controls) was “comparable amounts” and the axon outgrowth ([13]; 3 μM, added 20 minutes after plating, observed 4 days, DMSO control) was “dramatic effect in promoting axon outgrowth”. The “neurite outgrowth from primary neuronal cells” value ([13]; primary neuronal cells from mice) was “promote neurite outgrowth”, the “adhesion of dissociated hESCs to Matrigel or laminin” value [3] was “dramatically increased adhesion” and the “adhesion of hESCs to gelatin or poly-lysine” value [3] was “not affected”. The “induction of MET and inhibition of EMT” value [9] was “induce MET (the reverse of EMT) and inhibit EMT”.

For CN(C)CCCn1cc(C2=C(c3c[nH]c4ccccc34)C(=O)NC2=O)c2ccccc21 [bisindolylmaleimide I, reference compound], the “effect on increased cell adhesion induced by Ptn” value ([3]; in combination with Ptn) was “antagonize” and the “effect on cell adhesion induced by Tzv” value ([3]; in combination with Tzv) was “no effect”.
